As usually defined, the IC50 is the concentration needed to halve the response being measured. A higher IC50 goes with lower potency.

Structures are written as SMILES.

The source of these data is the Kinase Knowledgebase extract (Sharma et al. 2016).

Some targets named below: PIK3CG (human) (UniProt P48736); PIK3CB (Human) (UniProt P42338); PIK3CA (human) (UniProt P42336); PIK3CD (Human) (UniProt O00329).
What all share (experiment): Enzyme Assay

Sequence of PIK3CG (human) (P48736 whole entry, looked up): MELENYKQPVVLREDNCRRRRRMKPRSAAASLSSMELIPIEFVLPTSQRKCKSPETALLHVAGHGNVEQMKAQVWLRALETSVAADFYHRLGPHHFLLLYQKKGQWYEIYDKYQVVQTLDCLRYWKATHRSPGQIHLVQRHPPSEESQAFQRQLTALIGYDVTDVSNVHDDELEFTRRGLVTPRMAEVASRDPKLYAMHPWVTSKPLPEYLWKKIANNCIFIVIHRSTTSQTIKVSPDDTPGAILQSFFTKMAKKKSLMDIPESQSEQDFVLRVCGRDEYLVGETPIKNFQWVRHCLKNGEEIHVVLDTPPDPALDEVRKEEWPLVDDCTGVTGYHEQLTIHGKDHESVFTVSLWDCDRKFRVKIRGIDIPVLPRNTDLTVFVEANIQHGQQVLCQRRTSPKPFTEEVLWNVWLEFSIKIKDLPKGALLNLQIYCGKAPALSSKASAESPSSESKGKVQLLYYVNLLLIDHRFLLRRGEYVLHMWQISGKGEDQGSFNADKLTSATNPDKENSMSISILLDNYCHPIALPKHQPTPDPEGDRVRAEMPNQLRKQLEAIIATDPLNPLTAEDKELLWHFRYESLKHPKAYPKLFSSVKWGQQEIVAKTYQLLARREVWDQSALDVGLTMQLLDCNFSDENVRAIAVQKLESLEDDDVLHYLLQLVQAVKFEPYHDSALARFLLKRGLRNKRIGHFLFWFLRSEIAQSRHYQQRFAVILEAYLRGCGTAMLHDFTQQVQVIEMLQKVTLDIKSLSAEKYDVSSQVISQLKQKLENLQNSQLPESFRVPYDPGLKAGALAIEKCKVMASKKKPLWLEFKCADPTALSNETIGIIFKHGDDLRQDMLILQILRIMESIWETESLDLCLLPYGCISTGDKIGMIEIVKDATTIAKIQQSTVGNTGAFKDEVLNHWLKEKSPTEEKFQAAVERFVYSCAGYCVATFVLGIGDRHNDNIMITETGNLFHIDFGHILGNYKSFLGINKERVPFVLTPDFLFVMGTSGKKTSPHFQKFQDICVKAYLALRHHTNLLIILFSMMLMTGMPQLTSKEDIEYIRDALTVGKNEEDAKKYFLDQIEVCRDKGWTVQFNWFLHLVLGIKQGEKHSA
Sequence of PIK3CD (Human) (O00329 whole entry, looked up): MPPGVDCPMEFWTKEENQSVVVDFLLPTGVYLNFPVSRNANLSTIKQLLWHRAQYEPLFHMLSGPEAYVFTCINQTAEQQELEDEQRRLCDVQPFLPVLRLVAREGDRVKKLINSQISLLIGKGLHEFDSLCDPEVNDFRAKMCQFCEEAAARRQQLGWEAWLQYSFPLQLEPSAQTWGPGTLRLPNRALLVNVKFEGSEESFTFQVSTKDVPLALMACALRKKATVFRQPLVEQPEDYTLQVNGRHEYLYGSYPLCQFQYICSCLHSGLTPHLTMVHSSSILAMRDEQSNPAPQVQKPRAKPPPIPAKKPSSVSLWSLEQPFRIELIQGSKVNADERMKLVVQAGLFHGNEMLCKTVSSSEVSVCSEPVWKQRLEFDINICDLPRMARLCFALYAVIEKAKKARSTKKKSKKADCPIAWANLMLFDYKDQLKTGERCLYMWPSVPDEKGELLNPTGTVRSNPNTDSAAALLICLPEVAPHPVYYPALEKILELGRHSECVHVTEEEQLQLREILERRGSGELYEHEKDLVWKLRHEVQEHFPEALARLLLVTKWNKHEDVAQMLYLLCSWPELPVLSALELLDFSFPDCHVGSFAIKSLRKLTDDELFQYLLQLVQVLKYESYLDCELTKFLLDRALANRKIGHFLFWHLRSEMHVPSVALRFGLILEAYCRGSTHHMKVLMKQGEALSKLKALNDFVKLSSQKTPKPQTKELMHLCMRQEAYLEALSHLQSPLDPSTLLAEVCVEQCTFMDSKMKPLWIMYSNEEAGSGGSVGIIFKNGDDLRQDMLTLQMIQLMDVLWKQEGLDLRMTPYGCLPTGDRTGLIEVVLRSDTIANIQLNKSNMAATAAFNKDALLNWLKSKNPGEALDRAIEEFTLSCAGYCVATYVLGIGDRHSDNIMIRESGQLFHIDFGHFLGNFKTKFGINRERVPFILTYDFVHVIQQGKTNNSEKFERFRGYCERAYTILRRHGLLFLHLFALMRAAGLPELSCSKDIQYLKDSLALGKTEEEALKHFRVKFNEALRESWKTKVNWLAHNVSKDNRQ
Sequence of PIK3CB (Human) (P42338 whole entry, looked up): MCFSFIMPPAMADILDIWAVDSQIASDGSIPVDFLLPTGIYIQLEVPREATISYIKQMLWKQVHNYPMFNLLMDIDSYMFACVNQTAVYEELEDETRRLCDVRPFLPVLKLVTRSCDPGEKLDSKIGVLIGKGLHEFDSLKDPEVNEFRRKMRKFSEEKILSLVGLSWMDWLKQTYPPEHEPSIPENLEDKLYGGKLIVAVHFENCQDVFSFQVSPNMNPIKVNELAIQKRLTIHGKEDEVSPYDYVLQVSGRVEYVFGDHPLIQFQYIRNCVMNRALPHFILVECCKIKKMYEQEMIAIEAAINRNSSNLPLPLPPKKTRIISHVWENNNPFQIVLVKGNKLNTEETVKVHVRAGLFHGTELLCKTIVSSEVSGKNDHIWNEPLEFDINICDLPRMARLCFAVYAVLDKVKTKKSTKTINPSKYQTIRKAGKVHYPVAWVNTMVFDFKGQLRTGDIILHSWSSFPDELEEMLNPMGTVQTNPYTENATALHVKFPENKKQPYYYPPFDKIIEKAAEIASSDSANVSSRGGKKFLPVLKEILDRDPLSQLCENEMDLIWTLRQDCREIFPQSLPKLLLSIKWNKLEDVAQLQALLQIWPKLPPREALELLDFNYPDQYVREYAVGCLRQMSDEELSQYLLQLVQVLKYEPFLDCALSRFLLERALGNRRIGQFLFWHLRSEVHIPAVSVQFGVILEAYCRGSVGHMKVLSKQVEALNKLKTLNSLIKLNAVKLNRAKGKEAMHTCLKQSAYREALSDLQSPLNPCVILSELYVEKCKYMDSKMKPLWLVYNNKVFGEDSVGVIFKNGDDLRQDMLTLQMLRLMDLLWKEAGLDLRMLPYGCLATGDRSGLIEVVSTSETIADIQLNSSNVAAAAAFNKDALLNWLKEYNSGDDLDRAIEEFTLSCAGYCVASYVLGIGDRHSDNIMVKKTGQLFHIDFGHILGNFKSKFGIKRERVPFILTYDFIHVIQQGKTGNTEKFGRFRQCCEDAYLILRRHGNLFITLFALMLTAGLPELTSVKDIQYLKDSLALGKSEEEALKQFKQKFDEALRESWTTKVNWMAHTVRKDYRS
Sequence of PIK3CA (human) (P42336 whole entry, looked up): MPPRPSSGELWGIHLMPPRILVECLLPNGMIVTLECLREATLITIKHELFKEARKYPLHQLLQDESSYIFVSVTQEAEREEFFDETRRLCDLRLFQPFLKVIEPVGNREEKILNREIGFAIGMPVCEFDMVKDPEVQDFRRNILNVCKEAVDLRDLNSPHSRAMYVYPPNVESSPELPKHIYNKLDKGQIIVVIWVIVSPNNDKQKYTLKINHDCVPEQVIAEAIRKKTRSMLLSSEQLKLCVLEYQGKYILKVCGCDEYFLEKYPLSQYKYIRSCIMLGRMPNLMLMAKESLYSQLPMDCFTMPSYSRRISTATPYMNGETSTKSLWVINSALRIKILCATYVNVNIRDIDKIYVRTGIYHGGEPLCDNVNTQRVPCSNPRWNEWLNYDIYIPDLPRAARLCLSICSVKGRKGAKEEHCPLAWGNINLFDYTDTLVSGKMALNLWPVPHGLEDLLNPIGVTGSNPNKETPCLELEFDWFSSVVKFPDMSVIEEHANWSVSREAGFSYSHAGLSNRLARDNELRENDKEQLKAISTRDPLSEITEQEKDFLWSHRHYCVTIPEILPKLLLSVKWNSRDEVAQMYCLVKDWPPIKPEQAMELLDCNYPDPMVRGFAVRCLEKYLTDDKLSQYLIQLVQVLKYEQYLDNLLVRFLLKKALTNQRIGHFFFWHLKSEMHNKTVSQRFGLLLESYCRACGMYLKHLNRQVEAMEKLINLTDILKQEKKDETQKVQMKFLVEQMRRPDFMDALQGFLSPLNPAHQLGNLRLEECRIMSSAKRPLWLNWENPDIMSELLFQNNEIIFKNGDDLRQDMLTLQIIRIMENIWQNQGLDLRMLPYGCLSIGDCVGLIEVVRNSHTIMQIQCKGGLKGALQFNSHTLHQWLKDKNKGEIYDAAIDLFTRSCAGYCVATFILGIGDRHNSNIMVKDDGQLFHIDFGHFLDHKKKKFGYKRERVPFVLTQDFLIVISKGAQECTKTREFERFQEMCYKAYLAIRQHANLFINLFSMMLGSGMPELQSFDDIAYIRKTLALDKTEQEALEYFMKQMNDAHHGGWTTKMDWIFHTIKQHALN

Take `C[C@H](O)C[C@H]1OC(=O)N(c2cc(-c3cnc(N)nc3C(F)(F)F)nc(N3CCOCC3)n2)[C@H]1C`: the IC50 was 205 nM against PIK3CG (human), 11 nM against PIK3CB (Human) and 5 nM at PIK3CA (human).

With `Nc1ncc(-c2cc(N3CCOCC3)nc(N3CCOCC3)n2)c(C(F)(F)F)n1`, the IC50 was determined as 464 nM against PIK3CG (human) and 80 nM against PIK3CD (Human).

In the case of `Nc1ncc(-c2cc(N3C(=O)O[C@H]4[C@H](O)CC[C@H]43)nc(N3CCOCC3)n2)c(C(F)(F)F)n1`, the IC50 at PIK3CG (human) was 145 nM; against PIK3CB (Human) it was 48 nM; against PIK3CA (human), 6 nM.

Turning to `Nc1cc(C(F)(F)F)c(-c2cc(N3CCCCC3=O)nc(N3CCOCC3)n2)cn1`, the IC50 turned out to be 5270 nM on PIK3CG (human), 296 nM on PIK3CD (Human), 214 nM against PIK3CB (Human) and 125 nM on PIK3CA (human).

For the compound `Nc1ncc(-c2cc(N3C(=O)OC[C@@H]3CO)nc(N3CCOCC3)n2)c(C(F)(F)F)n1`, the IC50 against PIK3CG (human) came out at 529 nM; at PIK3CD (Human) it was 17 nM; against PIK3CB (Human), 6 nM; at PIK3CA (human), 21 nM.

With `C[C@H]1[C@@H](CC(C)(C)O)OC(=O)N1c1cc(-c2cnc(N)nc2C(F)(F)F)nc(N2CCOCC2)n1.C[C@H]1[C@H](CC(C)(C)O)OC(=O)N1c1cc(-c2cnc(N)nc2C(F)(F)F)nc(N2CCOCC2)n1`, the IC50 on PIK3CG (human) came to 290 nM; on PIK3CB (Human), 124 nM; on PIK3CA (human) it was 5 nM.

Regarding `C[C@@H](O)C[C@H]1OC(=O)N(c2cc(-c3cnc(N)nc3C(F)(F)F)nc(N3CCOCC3)n2)[C@H]1C`, the IC50 against PIK3CA (human) was 5 nM.

On to `Nc1cc(C(F)(F)F)c(-c2cc(N3CCS(=O)(=O)CC3)nc(N3CCOCC3)n2)cn1`, for which the IC50 was determined as 4630 nM against PIK3CG (human), 2320 nM on PIK3CD (Human), 2750 nM against PIK3CB (Human) and 592 nM on PIK3CA (human).

For `Nc1cc(C(F)(F)F)c(-c2cc(N3CCC(=O)CC3)nc(N3CCOCC3)n2)cn1`, the IC50 on PIK3CG (human) was 4320 nM; at PIK3CD (Human), 692 nM; against PIK3CB (Human) it was 1250 nM; on PIK3CA (human), 359 nM.

Consider `Nc1cc(C(F)(F)F)c(-c2cc(N3CCOC(c4ccccc4)C3)nc(N3CCOCC3)n2)cn1` (stereo not given), for which the IC50 came out at 1040 nM against PIK3CD (Human), 875 nM against PIK3CB (Human) and 134 nM at PIK3CA (human).

On to `Nc1cc(C(F)(F)F)c(-c2cc(N3CCN(c4ccccc4)C3=O)nc(N3CCOCC3)n2)cn1`, for which the IC50 against PIK3CG (human) worked out at 8790 nM; against PIK3CD (Human), 153 nM; against PIK3CB (Human), 192 nM; at PIK3CA (human) it was 107 nM.
